From the supplement of paper PMC8882468

Columns and labels:
Test in all cases: CTG-3D luminescence at 96 h relative to day-0 seeding control (ratio to day 0); higher = more growth / less cytotoxicity; PDxO 3D drug screen, 96 h, CTG-3D normalised to day-0 seeding control.
[1] = tested on: HCI-002 (organoid from a triple-negative breast cancer xenograft)
[2] = tested on: HCI-010 (organoid from a breast cancer xenograft)
[3] = tested on: HCI-011.E2 (organoid from an ER-positive breast cancer xenograft)
[4] = tested on: HCI-017.E2 (organoid from an ER-positive breast cancer xenograft)
[5] = tested on: HCI-025 (organoid from a breast cancer xenograft)

Cc1cc(Nc2ncc(Cl)c(Nc3ccccc3S(=O)(=O)C(C)C)n2)c(OC(C)C)cc1C1CCNCC1 [ceritinib]
CTG-3D luminescence at 96 h
Conditions | 12.5 pM | 0.00025 µM | 0.005 µM | 0.1 µM | 1 µM | 10 µM | 100 µM | 625 fM
[1], days in culture: 62 | 2.84 | 2.62 | 3.08 | 2.52 | 2.11 | 0.00947 | -0.00984 | 3.15
[1], days in culture: 82 | 3.23 | 2.64 | 2.18 | 2.46 | 1.76 | 0.00838 | -0.0057 | 2.72
[1], days in culture: 91 | 4.25 | 3.86 | 3.52 | 4.11 | 3.29 | 0.00341 | -0.0215 | 4.18
[1], days in culture: 191 | 2.47 | 2.8 | 2.59 | 2.41 | 2.23 | 0.00759 | -0.00732 | 2.72
[1], days in culture: 209 | 2.4 | 2.59 | 2.23 | 2.14 | 2.03 | 0.00677 | -0.00747 | 2.35
[1], days in culture: 227 | 6.1 | 6.52 | 5.45 | 5.99 | 4.45 | -0.223 | -0.242 | 7.25
[2], days in culture: 52 | 2.34 | 2.15 | 2.46 | 2.54 | 2.64 | -0.0117 | -0.0342 | 2.26
[2], days in culture: 65 | 1.61 | 1.61 | 1.79 | 1.94 | 1.83 | 0.00782 | -0.00536 | 1.74
[2], days in culture: 103 | 3.59 | 3.48 | 3.35 | 3.68 | 3.99 | 0.0149 | -0.0118 | 3.09
[3], days in culture: 74 | 1.46 | 1.59 | 1.77 | 2.11 | 1.4 | 0.0662 | -0.00371 | 1.72
[4], days in culture: 85 | 2.65 | 2.49 | 2.67 | 2.69 | 2.49 | 0.446 | -0.00537 | 2.49
[5], days in culture: 172 | 2.83 | 2.05 | 3.23 | 2.01 | 2.79 | 0.00721 | -0.00729 | 2.37
[5], days in culture: 209 | 1.92 | 1.29 | 1.23 | 1.33 | 1.33 | 0.628 | -0.00366 | 1.68
[5], days in culture: 218 | 2.02 | 1.87 | 1.86 | 1.8 | 1.36 | 1.48 | -0.00328 | 2.18

CTG-3D luminescence at 96 h
Conditions | 12.5 pM | 0.00025 µM | 0.005 µM | 0.1 µM | 1 µM | 10 µM | 100 µM | 625 fM
[3] | 1.68 | 1.409 | 1.37 | 1.85 | 1.4 | 0.353 | -0.00338 | 1.92
[4] | 1.94 | 2.16 | 2.23 | 2.22 | 1.988 | 0.0699 | -0.00443 | 2.22

CCN1CCN(Cc2ccc(Nc3ncc(F)c(-c4cc(F)c5nc(C)n(C(C)C)c5c4)n3)nc2)CC1 [abemaciclib]
CTG-3D luminescence at 96 h
Conditions | 12.5 pM | 0.00025 µM | 0.005 µM | 0.1 µM | 1 µM | 10 µM | 100 µM | 625 fM
[1], days in culture: 62 | 2.66 | 2.58 | 3.14 | 1.73 | 1.79 | 0.212 | 0.0177 | 2.98
[1], days in culture: 82 | 3.15 | 2.81 | 2.24 | 1.98 | 1.8 | 0.0326 | 0.0147 | 2.83
[1], days in culture: 91 | 3.78 | 3.22 | 2.89 | 1.68 | 2.17 | 1.95 | 0.0268 | 3.9
[1], days in culture: 191 | 2.72 | 2.89 | 3.01 | 1.89 | 2.34 | 0.748 | 0.018 | 2.57
[1], days in culture: 209 | 2.24 | 2.35 | 2.4 | 1.36 | 1.49 | 0.0253 | 0.014 | 2.36
[1], days in culture: 227 | 5.48 | 5.17 | 4.76 | 2.91 | 3.24 | 0.0659 | 0.0285 | 5.64
[2], days in culture: 52 | 1.92 | 2.34 | 2.3 | 2.47 | 1.99 | 0.77 | 0.0133 | 2.09
[2], days in culture: 65 | 1.68 | 1.83 | 2.02 | 1.78 | 1.2 | 0.0257 | 0.00729 | 1.65
[2], days in culture: 103 | 3.48 | 3.18 | 3.28 | 3.44 | 3.5 | 2.6 | 0.0301 | 2.98
[3], days in culture: 74 | 1.84 | 2.83 | 2.59 | 2.7 | 2.61 | 1.72 | 0.00196 | 2.79
[4], days in culture: 85 | 2.84 | 2.45 | 2.5 | 2.52 | 2.03 | 1.81 | 0.0118 | 3.16
[5], days in culture: 172 | 3.01 | 1.55 | 3.2 | 2.1 | 2.55 | 1.91 | 0.0181 | 2.18
[5], days in culture: 209 | 2.03 | 1.8 | 1.98 | 2.2 | 2.46 | 1.27 | 0.0124 | 1.49
[5], days in culture: 218 | 1.37 | 1.71 | 1.83 | 1.55 | 1.46 | 1.84 | 0.0142 | 1.33

CTG-3D luminescence at 96 h
Conditions | 12.5 pM | 0.00025 µM | 0.005 µM | 0.1 µM | 1 µM | 10 µM | 100 µM | 625 fM
[3] | 1.49 | 1.5 | 1.57 | 1.9 | 1.52 | 1.04 | 0.00535 | 1.6
[4] | 1.858 | 1.97 | 2.083 | 2.11 | 2.01 | 1.5 | 0.00884 | 2.33
